Columns and labels:
PC-3 = assay: MTT in vitro antiproliferative assay, PC-3; format: cell-based; details: Homo sapiens, PC-3, 48 h
Description: (§1) The in vitro antiproliferative activities of the novel triazolo[3,4-b]thiadiazole derivatives were estimated in ten well-established human cancer cell lines including three ovarian (SKOV-3, UWB 1.289, and UWB 1.289+BRCA1), five colorectal adenocarcinoma (DLD-1, HT-29, LS174T, LoVo, and SW403), and two prostate cancer cell lines (PC-3 and DU-145). All cancer cell lines were obtained from the American Type Culture Collection (ATCC) and cultivated in different culture media according to the instructions. The required growth mediums were supplemented with 10% fetal bovine serum and 1% streptomycin/penicillin. All cancer cell lines were cultured as monolayers and maintained at 37 °C, 5% CO2 in humidified air.
(§2) Stock solutions of all tested compounds were prepared by dissolving the required amount of substances in the DMSO solvent to reach the desired concentration of 15 mM.
(§3) To evaluate the in vitro antiproliferative activity of the triazolo[3,4-b]thiadiazole derivatives, 3-(4,5-dimethylthiazol-2-yl)-2,5-diphenyltetrazolium bromide (MTT) assay was assessed. According to the protocol, cells were firstly seeded into a 96-well plate at a density of 8 × 10^3 cells and grown for 24 h at 37 °C, 5% CO2 in humidified air. Subsequently, cells were treated with the tested compounds in a specific range of drug concentrations (1–100 μΜ). Following 48 h of drug exposure, the culture media were discarded and replaced with 100 μL of fresh medium. Afterwards, 50 μL of dissolved MTT in phosphate-buffered saline (PBS) solution (5 mg/mL) were added in each well and cells were incubated for 3 h at 37 °C, 5% CO2 in humidified air. Incubation time was followed by MTT discard and the addition of 100 μL of DMSO solvent so that the formazan crystals could be dissolved. The absorbance of the converted dye was immediately measured at a wavelength of 540 nm on an ELISA reader (VersaMax Microplate Reader, Orleans, CA, USA).
(§4) The in vitro anticancer effect of a tested compound on cell viability was determined by three dose–response parameters termed GI50, TGI, and IC50. More specifically, the GI50 value indicates the required concentration of the compound that impels 50% cell growth inhibition, the TGI value corresponds to the concentration that induces 100% cell growth inhibition, and the IC50 value is the concentration that causes 50% cell death. The two parameters GI50 and TGI represent the cytostatic activity, whereas IC50 reflects the cytotoxic effect of a drug. To estimate the three parameters, nine absorbance measurements were required including control 24 h (Ct24), control 72 h (Ct72), and the mean of cell survival in all seven drug concentrations (Tt72). The percentage growth inhibition was calculated according to National Cancer Institute’s (NCI) protocol: [(Tt72x) − (Ct24)/(Ct72) − (Ct24)] × 100 for concentrations for which Tt72x > Ct24 and [(Tt72x) − (Ct24)/Ct24] × 100 for concentrations for which Tt72x < Ct24. GI50 was calculated from [(Tt72x) − (Ct24)/(Ct72) − (Ct24)] × 100 = 50, TGI was calculated from [(Tt72x) − (Ct24)/(Ct72) − (Ct24)] × 100 = 0, and IC50 was calculated from [(Tt72x) − (Ct24)/Ct24] × 100 = 50. All the experiments were carried out in triplicate.

DU-145 = assay: MTT in vitro antiproliferative assay, DU-145; format: cell-based, human
Description: as §1, §2, §3, §4

HT-29 = assay: MTT in vitro antiproliferative assay, HT-29; format: cell-based, human
Description: as §1, §2, §3, §4

DLD-1 = assay: MTT in vitro antiproliferative assay, DLD-1; format: cell-based, human; details: DLD-1, MTT
Description: as §1, §2, §3, §4

SKOV-3 = assay: MTT in vitro antiproliferative assay, SKOV-3; format: cell-based; details: Homo sapiens, SK-OV-3, 48 h
Description: as §1, §2, §3, §4

**Q.** Which GI50 (PC-3) does the source give for `COc1cc(Cc2nnc3sc(-c4cc([N+](=O)[O-])ccc4[N+](=O)[O-])nn23)c(S(=O)(=O)N(C(C)C)C(C)C)cc1OC` [Compound 7d, 2-((6-(2,5-dinitrophenyl)-[1,2,4]triazolo[3,4-b][1,3,4]thiadiazol-3-yl)methyl)-N,N-diisopropyl-4,5-dimethoxybenzenesulfonamide] here?
**A.** The GI50 was 8 ± 1 µM.

**Q.** What about the IC50 (PC-3) of the same molecule?
**A.** Its IC50 is 22 ± 0.3 µM.

**Q.** And the IC (TGI) (PC-3; read-out: TGI)?
**A.** Its IC (TGI) is 11 ± 1.04 µM.

**Q.** And the TGI (DU-145; DU-145, MTT, 48 h drug exposure)?
**A.** Its TGI is 14 ± 0.5 μΜ.

**Q.** And the GI50 (DU-145; Homo sapiens, DU-145, 48 h)?
**A.** The GI50 was 6.8 ± 0.8 µM.

**Q.** And the IC50 (DU-145; Homo sapiens, DU-145, 48 h)?
**A.** The IC50 was 21.3 ± 0.9 µM.

**Q.** What about the TGI (HT-29; HT-29, MTT, 48 h drug exposure) of the same molecule?
**A.** Its TGI is 26 ± 1.52 μΜ.

**Q.** And the GI50 (HT-29; Homo sapiens, HT-29, 48 h)?
**A.** Its GI50 is 17.9 ± 2.51 µM.

**Q.** What about the IC50 (HT-29; Homo sapiens, HT-29, 48 h) of the same molecule?
**A.** The IC50 was 40 ± 1 µM.

**Q.** And the TGI (DLD-1; 48 h drug exposure)?
**A.** Its TGI is 12 ± 0.5 μΜ.

**Q.** And the IC50 (DLD-1; Homo sapiens, 48 h, 50% cell death)?
**A.** The IC50 was 22 ± 1 µM.

**Q.** And the GI50 (DLD-1; Homo sapiens, 48 h drug exposure)?
**A.** The GI50 was 7.3 ± 0.75 µM.

**Q.** And the GI50 (SKOV-3)?
**A.** Its GI50 is 13 ± 0.5 µM.

**Q.** And the IC50 (SKOV-3)?
**A.** Its IC50 is 23 ± 1.4 µM.

**Q.** What about the IC (TGI) (SKOV-3; read-out: TGI) of the same molecule?
**A.** Its IC (TGI) is 17 ± 1 µM.

Reference: PMC8066331, “Anticancer Activity of Triazolo-Thiadiazole Derivatives and Inhibition of AKT1 and AKT2 Activation” (Pharmaceutics, 2021)
